{"source": "patent US8642539B2", "about": "“Method for treating a disease characterized by reduced appetite” (Takeda Pharmaceutical Company Limited, priority 2007, dated 2014)", "key": {"GPR100": {"target": "GPR100 (Homo sapiens, UniProt Q8TDU9)", "sequence (Q8TDU9 whole entry, species assumed)": "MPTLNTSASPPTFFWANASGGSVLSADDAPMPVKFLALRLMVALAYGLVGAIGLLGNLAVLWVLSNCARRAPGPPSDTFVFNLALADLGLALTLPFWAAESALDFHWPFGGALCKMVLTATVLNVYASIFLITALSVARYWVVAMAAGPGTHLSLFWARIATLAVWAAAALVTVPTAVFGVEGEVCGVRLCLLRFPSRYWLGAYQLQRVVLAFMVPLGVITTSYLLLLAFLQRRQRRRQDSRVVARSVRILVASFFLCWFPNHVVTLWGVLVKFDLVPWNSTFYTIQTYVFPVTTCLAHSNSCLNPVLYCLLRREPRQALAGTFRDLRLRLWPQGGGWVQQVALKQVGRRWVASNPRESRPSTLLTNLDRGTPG", "conditions": "mature Insl5; cited from earlier work"}, "wt mice": {"test_system": "wt mice", "assay": "Insl5 administered intraperitoneally, food intake in wt mice", "format": "in vivo", "conditions": "wt mice (129/SvEv), intraperitoneal, dose dependent; FIG. 9 upper panel", "experimental": "(§1) To test the hypothesis that Insl5 is an orexigenic hormone directly, it was administered intraperitoneally to wt and GPR100−/− mice. […] Moreover, this effect is mediated through GPR100."}, "GPR100−/− mice": {"test_system": "GPR100−/− mice", "assay": "Insl5 administered intraperitoneally, feeding behaviour in GPR100−/− mice", "format": "in vivo", "conditions": "intraperitoneal, FIG. 9 lower panel", "experimental": "as §1"}}, "note": "Entries after “also recorded” stand apart in the source; their conditions may differ."}
{"substance": "insulin-like peptide 5 [Insl5, 45 amino acid residue mature peptide comprising an A chain and a B chain connected by disulfide bonds; endogenous ligand of GPR100]", "values": [{"measurement": "affinity in displacing relaxin-3 peptide from GPR100", "setting": "GPR100", "value": "high affinity, in the nanomolar range"}, {"measurement": "food intake", "setting": "wt mice", "value": "increase of food intake; also recorded: significant increase in food intake"}, {"measurement": "feeding behaviour", "setting": "GPR100−/− mice", "value": "no effect on feeding behaviour"}]}
